{"source": "patent US20060286575A1", "about": "“MCL-1 quadruplex nucleic acids and uses thereof” (Cylene Pharmaceuticals, Inc., priority 2005, published 2006)", "key": {"[1]": {"test_system": "MCL-1 wildtype quadruplex sequence (MCL-wt)", "assay": "Competition assay (Taq polymerase stop reaction as reporter), competitor MCL-1 wildtype quadruplex", "type": "binding", "conditions": "test compound at its IC50 concentration", "text": "(§1) An example of an affinity competition assay, described hereafter, is useful for determining the relative binding affinities of a test molecule between different types of nucleic acid structures, using the ability of the test molecule to bind and stabilize a specific G-quadruplex structure in a Taq polymerase stop reaction utilized as a reporter system.\n(§2) The assay first involves establishing the IC50 of a test molecule in the polymerase arrest assay described above using the fluorescent-labeled oligonucleotide primer. The IC50 concentration is defined as the concentration of test molecule required that yields a 1:1 ratio of quadruplex arrest to full-length product.\n(§3) A competitor nucleic acid sequence is titrated into the reaction such that each individual reaction contains the test compound at it's IC50 concentration and an increasing concentration of competitor nucleic acid (increasing from zero). The competitor nucleic acid, may be a short duplex or single strand oligonucleotide, a plasmid DNA sequence, an RNA sequence, or a nucleic acid sequence capable of forming a secondary structure, such as a G-quadruplex. […] The decrease in quadruplex arrest product, relative to the full-length product is measured as a function of concentration of added competitor nucleic acid. Thus the relative binding affinities to different competitor nucleic acid structures can be determined graphically. […]"}, "[2]": {"test_system": "extended MCL-1 sequence (insert 46)", "assay": "Competition assay (Taq polymerase stop reaction as reporter), competitor extended MCL-1 sequence insert 46", "type": "binding", "conditions": "FIG. 2", "text": "as §1, §2, §3"}, "[3]": {"test_system": "extended MCL-1 sequence (insert 58)", "assay": "Competition assay (Taq polymerase stop reaction as reporter), competitor extended MCL-1 sequence insert 58", "type": "binding", "conditions": "FIG. 2", "text": "as §1, §2, §3"}, "[4]": {"test_system": "MCL-1 mRNA", "assay": "MCL-1 mRNA expression in D556 medulloblastoma cells (Affymetrix U133+2.0 gene chip)", "type": "cell-based", "conditions": "19 hours", "experimental": "(§4) FIG. 3 illustrates Mcl-1 mRNA expression levels in medulloblastoma cells treated with CX-3543. The cells were treated at 0.1 and 1 μM CX-3543 for 19 hours, as measured by Affymetrix U133+2.0 47,000 gene chip.\n(§5) D556 medulloblastoma cells were exposed to 1 uM Compound A-1 for 19 hours. […] The level of apoptosis induced in D556 as measured by Annexin V staining was about 5.5-fold higher than in DMSO-treated cells, as compared to about 1.9-fold in DAOY cells. The relative amount of down-regulation of MCL-1 (approximately 14-fold compared to about 3.2-fold) correlates with the relative level of apoptosis induction (about 5.5-fold as compared to about 1.9-fold)."}, "[5]": {"test_system": "MCL-1 mRNA", "assay": "MCL-1 mRNA expression in DAOY medulloblastoma cells", "type": "cell-based", "conditions": "1 uM, 19 hours", "experimental": "as §4, §5"}, "[6]": {"test_system": "D556 medulloblastoma cells", "assay": "Apoptosis induction by Annexin V staining in D556 cells", "type": "cell-based", "experimental": "(§6) FIG. 4 depicts the induction of apoptosis following treatment with CX-3543.\nas §5"}, "[7]": {"test_system": "DAOY medulloblastoma cells", "assay": "Apoptosis induction by Annexin V staining in DAOY cells", "type": "cell-based", "experimental": "as §6, §5"}, "[8]": {"test_system": "MCL-1 protein", "assay": "MCL-1 protein levels in cells contacted with compound", "type": "cell-based", "conditions": "expected from the mRNA and apoptosis results", "experimental": "as §5"}}}
{"smiles": "CN1CCC[C@H]1CCNC(=O)c1cn2c3c(c(N4CCC(c5cnccn5)C4)c(F)cc3c1=O)Oc1cc3ccccc3cc1-2", "note": "(stereo partly shown) [Compound A-1]", "values": [{"measurement": "binding to the MCL-1 sequence shown in FIG. 2", "setting": "[1]", "value": "binds"}, {"measurement": "binding to extended MCL-1 sequence insert 46 compared to the wildtype sequence", "setting": "[2]", "value": "comparably higher"}, {"measurement": "binding to extended MCL-1 sequence insert 58 compared to the wildtype sequence", "setting": "[3]", "value": "comparably higher"}, {"measurement": "rank of Mcl-1 among genes with statistically significant change relative to DMSO control", "setting": "[4]; D556 cells, 1 μM, out of more than 500 genes", "value": "eighth most highly down-regulated gene"}, {"measurement": "MCL-1 mRNA down-regulation", "setting": "[4]; D556 medulloblastoma cells, 1 uM", "value": "approximately 14 fold"}, {"measurement": "MCL-1 mRNA down-regulation", "setting": "[5]", "value": "approximately 3.2 fold"}, {"measurement": "level of apoptosis induced, relative to DMSO-treated cells", "setting": "[6]; D556 cells", "value": "about 5.5 fold"}, {"measurement": "apoptosis induction, D556 compared with DAOY", "setting": "[6]; FIG. 4", "value": "greater effect of CX-3543 on D556 than on DAOY"}, {"measurement": "level of apoptosis induced, relative to DMSO-treated cells", "setting": "[7]", "value": "about 1.9 fold"}, {"measurement": "MCL-1 protein levels", "setting": "[8]", "value": "decreased"}]}
